Key:
H1299 lung cancer cells = assay: Cell viability (MTT assay) in H1299 cells; format: cell-based, human; settings: 0.5-10 μM, 3 days, MTT (FIG. 9-12)
Excerpt: (§1) Human lung cancer cell lines (H1299, H460, A549, H226B, and PC9), breast cancer cell line (MDA-MB-231), liver cancer cell line (Hep3B), kidney cancer cell line (786-0), prostate cancer cell lines (DU145 and PC-3), and mouse lung cancer cell line (Lewis Lung Carcinoma, LLC) were purchased from ATCC (American Type Culture Collection) or obtained from Dr. John V. Heymach of MD Anderson Cancer Center, USA. The human head and neck cancer cell line (UMSCC38) was obtained from Dr. Jeffrey N. Myers (MD Anderson Cancer Center, USA). Human colon cancer cell lines (HCT116 and HT-29) and glioblastoma cell line (U87MG) were obtained from Professor Sang Kook Lee (Seoul National University College of Pharmacy). The human kidney cancer cell line (Caki-1), and gastric cancer cell line (SNU-638) were purchased from the Korean Cell Line Bank. The chemotherapy-resistant cells [paclitaxel-resistant H460 cells (H460/PcR), paclitaxel-resistant H226B cells (H226B/PcR), cisplatin-resistant H1299 cells (H1299/CsR), pemetrexed-resistant H1299 cells (H1299/PmR)] and molecularly targeted anticancer therapy-resistant cells [erlotinib-resistant PC9 cells (PC9/ER)] were constructed by treating the respective anti-cancer drugs for more than three months. H1299, H460, H226B, PC9, Hep3B, 786-0, DU145, PC-3, HCT116, HT-29, SNU-638, chemotherapeutic resistant cells, and molecularly targeted anticancer therapy-resistant cells were cultured in RPMI 1640 media containing 10% fetal bovine serum (FBS) and antibiotics at 37° C. under 5% CO2 conditions, while MDA-MB-231, UMSCC38, U87MG, Caki-1 were cultured in DMEM media containing 10% FBS and antibiotics at 37° C. under 5% CO2 conditions. Cells were passaged 1-2 times per week.
(§2) The cancer cell lines were seeded in a 96-well plate at a density of 2×10^3 cells per well and cultured for 24 hours to allow the cells to attach. The cells were then treated with diluted drugs in media for 3 days and cell viability was assessed using MTT assay or crystal violet (CB) assay. For the MTT assay, MTT solution dissolved in PBS was added to achieve a final concentration of 500 μg/mL and incubated for 2-4 hours, after which the medium was removed and the formed formazan was dissolved in 100% DMSO, followed by measuring the absorbance at 570 nm. For the CB assay, the cultured cells were fixed with 100% methanol, stained with a 0.025% crystal violet solution, dissolved in 1% SDS solution, and the absorbance was measured at 570 nm. Cell viability was calculated as the percentage of absorbance change in drug-treated group compared to vehicle (DMSO) treated control group.

[1] = system: various lung cancer cell lines and chemotherapeutic agent-resistant lung cancer cell lines; assay: Cell viability in lung cancer and chemotherapeutic drug-resistant lung cancer cell lines; format: cell-based, human; settings: lung cancer and chemotherapeutic agent-resistant lung cancer cell lines (FIG. 13, 15)
Excerpt: (§3) Human lung cancer cell lines (H1299, H460, A549, H226B, and PC9), breast cancer cell line (MDA-MB-231), liver cancer cell line (Hep3B), kidney cancer cell line (786-0), prostate cancer cell lines (DU145 and PC-3), and mouse lung cancer cell line (Lewis Lung Carcinoma, LLC) were purchased from ATCC (American Type Culture Collection) or obtained from Dr. John V. Heymach of MD Anderson Cancer Center, USA. The human head and neck cancer cell line (UMSCC38) was obtained from Dr. Jeffrey N. Myers (MD Anderson Cancer Center, USA). […]
as §2, with “Cell viability was calculated as the percentage of absorbance change in drug-treated group compared to vehicle (DMSO) treated control group.” left out

[2] = system: various lung cancer cells and chemotherapeutic drug-resistant lung cancer cell lines; assay: Anchorage-dependent colony formation in lung cancer and drug-resistant lung cancer cell lines; format: cell-based, human; settings: 0.5 μM (FIG. 14, 16)
Excerpt: as §3, with “USA). Human colon cancer cell lines (HCT116 and HT-29) and glioblastoma cell line (U87MG) were obtained from Professor Sang Kook Lee (Seoul National University College of Pharmacy). The human kidney cancer cell line (Caki-1), and gastric cancer cell line (SNU-638) were purchased from the Korean Cell Line Bank.” for “USA).”
Cancer cell lines were seeded in a 24-well or 6-well plate at 100-250 cells per well and allowed to attach, followed by treatment with drugs diluted in media and cultured for 2-3 weeks. Formed colonies were stained with crystal violet and counted. The drug's colony formation inhibitory effect was calculated as the percentage of colony number change in the drug-treated group compared to the vehicle (DMSO)-treated control group.

[3] = system: Hsp70 protein and Hsp70/Hsp90 client proteins (Akt, Src, and MEK); assay: Western blot of Hsp70 and client proteins in lung cancer cells; format: cell-based, human; settings: for expression of Hsp70 protein and Hsp70/Hsp90 client proteins (Akt, Src, and MEK): H1299 cells, up to 250 nM, 2 days (FIG. 17)
Excerpt: as §1
The cells treated with the drug were treated with RIPA lysis buffer [50 mM Tris-HCl (pH 7.4), 150 mM NaCl, 1 mM EDTA, 0.25% sodium deoxycholate, 1% Triton X-100, 100 mM NaF, 5 mM Na3VO4, 1 mM PMSF, 1 μg/mL aprotinin, 1 μg/mL leupeptin, and 1 μg/mL pepstatin], followed by incubation on ice for 10 minutes and centrifugation at 13,000 rpm for 15 minutes to extract proteins. The proteins were quantified by BCA assay and equal amounts of proteins were separated by 8-10% SDS-PAGE. The separated proteins were transferred to a PVDF membrane, and the areas of the membrane not transferred with protein were blocked by incubating the membrane in 5% skim milk solution or 3% BSA solution diluted in TBST at room temperature for 1 hour. The membrane was then incubated in a primary antibody solution diluted 1:1,000 in 3% BSA at 4° C. for more than 12 hours. The primary antibody used was either anti-Hsp70 or anti-actin, with the anti-Hsp70 antibody obtained from Enzo Life Science and the actin antibody obtained from Santa Cruz Biotechnology. After incubation, the membrane was washed for 1 hour while changing TBST several times, and then incubated for 1 hour at room temperature with a secondary antibody (GeneTex) diluted 1:5,000 in 5% skim milk solution. After incubation, the membrane was washed for 1 hour while changing TBST several times, and then treated with an enhanced chemiluminescence (ECL) solution. The expression of Hsp70 or Actin protein was detected using LAS4000.

lung cancer cell = assay: Cancer cell survival inhibitory activity (MTT assay) of EV501 to EV509; format: cell-based; settings: 0.5 μM (lowest concentration), MTT assay (FIG. 18)
Experimental: as §2

cancer cell = assay: Cancer cell survival inhibitory activity (crystal violet assay); format: cell-based; settings: crystal violet assay (FIG. 19)
Experimental: as §2

lung cancer cells = assay: Anchorage-independent (soft agar) colony formation; format: cell-based; settings: soft agar (FIG. 20)
Experimental: Before the experiment, a 1% agar solution made with low-melting agar was placed in a 24-well plate and hardened at room temperature to create a bottom agar. The cells were diluted with medium to seed 2×10^3 cells per well in a 24-well plate. Then, it was mixed with a 1% agar solution to create a final 0.4% agar solution, which was then solidified at room temperature in the plate containing the bottom agar. Medium containing the drug was added on top of the cells mixed in the agar and cultured for 1-3 weeks at 37° C. in a 5% CO2 condition, after which the formed colonies were stained with an MTT solution of 250-500 μg/mL and counted. The colony formation inhibitory effect of the drug was calculated by expressing the change in colony numbers in the drug-treated group compared to the vehicle (DMSO) treated control group as a percentage.

SMILES: C#CCN1c2ccccc2C(=O)N2CCc3c([nH]c4ccccc34)C21 (stereo not drawn) [EV205, 14N-propagyl Evodiamine]
- lung cancer cell death (cell viability) (H1299 lung cancer cells): excellent effects

SMILES: C=CCN1c2ccccc2C(=O)N2CCc3c([nH]c4ccccc34)C21 (stereo not drawn) [EV206, 14N-Allyl Evodiamine]
- growth-inhibitory effect [1]: excellent growth-inhibitory effects
- formation of colonies under anchorage-dependent (adherent) conditions [2]: significantly inhibited
- expression of Hsp70 protein and Hsp70/Hsp90 client proteins (Akt, Src, and MEK) [3]: clear reduction
- lung cancer cell death (cell viability) (H1299 lung cancer cells): excellent effects

SMILES: CC(C)=CCN1c2ccccc2C(=O)N2CCc3c([nH]c4ccccc34)C21 (stereo not drawn) [EV217]
- lung cancer cell death (cell viability) (H1299 lung cancer cells): excellent effects

SMILES: C=C(C)CN1c2ccccc2C(=O)N2CCc3c([nH]c4ccccc34)C21 (stereo not drawn) [EV218, 14N-(2-methyl)allyl evodiamine]
- lung cancer cell death (cell viability) (H1299 lung cancer cells): excellent effects

SMILES: CC#CCN1c2ccccc2C(=O)N2CCc3c([nH]c4ccccc34)C21 (stereo not drawn) [EV219]
- lung cancer cell death (cell viability) (H1299 lung cancer cells): excellent effects

SMILES: CN1c2ccc(F)cc2C(=O)N2CCc3c([nH]c4ccccc34)C21 (stereo not drawn) [EV301]
- lung cancer cell death (cell viability) (H1299 lung cancer cells): excellent effects

SMILES: COc1ccc2c(c1)C(=O)N1CCc3c([nH]c4ccccc34)C1N2C (stereo not drawn) [EV302]
- lung cancer cell death (cell viability) (H1299 lung cancer cells): excellent effects

SMILES: CN1c2ccc([N+](=O)[O-])cc2C(=O)N2CCc3c([nH]c4ccccc34)C21 (stereo not drawn) [EV303]
- lung cancer cell death (cell viability) (H1299 lung cancer cells): excellent effects

SMILES: CN1c2ccc(Cl)cc2C(=O)N2CCc3c([nH]c4ccccc34)C21 (stereo not drawn) [EV304]
- lung cancer cell death (cell viability) (H1299 lung cancer cells): excellent effects

SMILES: CN1c2ccc(Br)cc2C(=O)N2CCc3c([nH]c4ccccc34)C21 (stereo not drawn) [EV306]
- lung cancer cell death (cell viability) (H1299 lung cancer cells): excellent effects

SMILES: Cc1ccc2c(c1)C(=O)N1CCc3c([nH]c4ccccc34)C1N2C (stereo not drawn) [EV307]
- lung cancer cell death (cell viability) (H1299 lung cancer cells): excellent effects

SMILES: CN1c2cccc(Cl)c2C(=O)N2CCc3c([nH]c4ccccc34)C21 (stereo not drawn) [EV308]
- lung cancer cell death (cell viability) (H1299 lung cancer cells): excellent effects

SMILES: COc1cccc2c1C(=O)N1CCc3c([nH]c4ccccc34)C1N2C (stereo not drawn) [EV309]
- lung cancer cell death (cell viability) (H1299 lung cancer cells): excellent effects

SMILES: CN1c2ccc(I)cc2C(=O)N2CCc3c([nH]c4ccccc34)C21 (stereo not drawn) [EV310]
- lung cancer cell death (cell viability) (H1299 lung cancer cells): excellent effects

SMILES: CN1c2ccccc2C(=O)N2CCc3c([nH]c4ccc([N+](=O)[O-])cc34)C21 (stereo not drawn) [EV401]
- lung cancer cell death (cell viability) (H1299 lung cancer cells): excellent effects

SMILES: CN1c2ccccc2C(=O)N2CCc3c([nH]c4c([N+](=O)[O-])cc([N+](=O)[O-])cc34)C21 (stereo not drawn) [EV402]
- lung cancer cell death (cell viability) (H1299 lung cancer cells): excellent effects

SMILES: COc1ccc2[nH]c3c(c2c1)CCN1C(=O)c2ccccc2N(C)C31 (stereo not drawn) [EV403]
- lung cancer cell death (cell viability) (H1299 lung cancer cells): excellent effects

SMILES: Cc1ccc2[nH]c3c(c2c1)CCN1C(=O)c2ccccc2N(C)C31 (stereo not drawn) [EV406]
- lung cancer cell death (cell viability) (H1299 lung cancer cells): excellent effects

SMILES: CN1c2ccccc2C(=O)N2CCc3c([nH]c4ccc(Cl)cc34)C21 (stereo not drawn) [EV407]
- lung cancer cell death (cell viability) (H1299 lung cancer cells): excellent effects

SMILES: CN1c2ccccc2C(=O)N2CCc3c([nH]c4ccc(O)cc34)C21 (stereo not drawn) [EV408]
- growth-inhibitory effect [1]: excellent growth-inhibitory effects
- formation of colonies under anchorage-dependent (adherent) conditions [2]: significantly inhibited
- expression of Hsp70 protein and Hsp70/Hsp90 client proteins (Akt, Src, and MEK) [3]: clear reduction
- lung cancer cell death (cell viability) (H1299 lung cancer cells): excellent effects

SMILES: CCCOc1ccc2[nH]c3c(c2c1)CCN1C(=O)c2ccccc2N(C)C31 (stereo not drawn) [EV413]
- lung cancer cell death (cell viability) (H1299 lung cancer cells): excellent effects

SMILES: C=CCN1c2ccccc2C(=O)N2CCc3c([nH]c4ccc([N+](=O)[O-])cc34)C21 (stereo not drawn) [EV501]
- expression of Hsp70 and Src and Akt (client proteins of Hsp70/Hsp90) ([3]; Western blot (FIG. 21)): decrease
- inhibition at 0.5 µM (lung cancer cell): > 65%
- cancer cell survival inhibitory activity (cancer cell): as excellent as EV507
- anchorage-independent colony formation (lung cancer cells): effectively inhibited
- melting point: 186 to 188 °C

SMILES: C=C(C)CN1c2ccccc2C(=O)N2CCc3c([nH]c4ccc([N+](=O)[O-])cc34)C21 (stereo not drawn) [EV502]
- inhibition at 0.5 µM (lung cancer cell): > 50%
- melting point: 261 to 262 °C

SMILES: C=CCN1c2ccccc2C(=O)N2CCc3c([nH]c4c([N+](=O)[O-])cc([N+](=O)[O-])cc34)C21 (stereo not drawn) [EV503]
- inhibition at 0.5 µM (lung cancer cell): > 50%
- melting point: 229 to 231 °C

SMILES: C=C(C)CN1c2ccccc2C(=O)N2CCc3c([nH]c4c([N+](=O)[O-])cc([N+](=O)[O-])cc34)C21 (stereo not drawn) [EV504]
- cancer cell survival inhibitory activity (cancer cell): as excellent as EV507
- melting point: 175 to 177 °C

SMILES: C#CCN1c2ccccc2C(=O)N2CCc3c([nH]c4c([N+](=O)[O-])cc([N+](=O)[O-])cc34)C21 (stereo not drawn) [EV506]
- inhibition at 0.5 µM (lung cancer cell): > 50%
- melting point: 232 to 234 °C

SMILES: C#CCN1c2ccccc2C(=O)N2CCc3c([nH]c4ccc(O)cc34)C21 (stereo not drawn) [EV508]
- inhibition at 0.5 µM (lung cancer cell): > 65%
- cancer cell survival inhibitory activity (cancer cell): as excellent as EV507
- anchorage-independent colony formation (lung cancer cells): effectively inhibited
- melting point: 230 to 232 °C

SMILES: C=C(C)CN1c2ccccc2C(=O)N2CCc3c([nH]c4ccc(O)cc34)C21 (stereo not drawn) [EV509]
- inhibition at 0.5 µM (lung cancer cell): > 65%
- cancer cell survival inhibitory activity (cancer cell): as excellent as EV507
- anchorage-independent colony formation (lung cancer cells): effectively inhibited
- melting point: 211 to 213 °C

— US20240140949A1, “ANTI-CANCER PHARMACEUTICAL COMPOSITION FOR TARGETING HEAT SHOCK PROTEIN 70, CONTAINING INDOLOQUINAZOLIDINE ALKALOID” (SEOUL NATIONAL UNIVERSITY R & DB FOUNDATION, priority 2021, published 2024)
